How the values were obtained:
[1] = target: T1, h-GABA-A α5β3γ2 (Homo sapiens, UniProt P18507+P31644); experiment: Two-electrode voltage clamp electrophysiology in Xenopus laevis oocytes expressing GABAA receptors, modulation of GABA EC20 current; format: cell-based; parameters: host or cells: Xenopus laevis oocytes micro-injected with RNA transcripts of the subunits; details: Table 1; for Efficacy (GABA) %: % modulation of GABA EC20 = 100*(Fold increase-1); for Fold increase h-GABA-A α5β3γ2 oocyte: test compound at approx. 30 fold its Ki, GABA at EC20
Protocol: Xenopus laevis oocytes at maturation stages V-VI were used for the expression of cloned mRNA encoding GABAA receptor subunits. Oocytes ready for RNA micro-injection were bought from Ecocyte, Castrop-Rauxel, Germany and stored in modified Barth's medium (composition in mM: NaCl 88, KCl 1, NaHCO32.4, HEPES 10, MgSO4 0.82, CaNO3 0.33, CaCl2 0.33, pH=7.5) at 20° C. until the experiment.
Oocytes were plated in 96-well plates to be used in an automated instrument (Robo-ocyte, MultiChannelSystems, Reutlingen, Germany) for microinjection and electrophysiological recordings. Approximately 50 nl of an aqueous solution containing the RNA transcripts for the subunits of the desired GABAA receptor was injected into each oocyte. RNA concentrations ranged between 0.3 and 16 ng/μl/subunit and were adjusted in pilot experiments to obtain GABA responses of a suitable size and a maximal effect of the reference modulator, Beta-CCM (β-CCM), a betacarboline negative allosteric modulator (NAM) at the GABAA receptor benzodiazepine (BZD) binding site or Midazolam, a benzodiazepine positive allosteric modulator (PAM) at the GABAA receptor benzodiazepine (BZD) binding site. The concentration of the γ2 subunit encoding RNA usually was 5- to 10-fold higher than the RNAs encoding the other subunits. Oocytes were kept in modified Barth's medium (composition in mM: NaCl 88, KCl 1, NaHCO3 4, HEPES 10, MgSO4 0.82, CaNO3 0.33, CaCl2) 0.33, pH=7.5) at 20° C. until the experiment.
Electrophysiological experiments were performed on days 3 to 5 after the micro-injection of mRNA. During the experiment the oocytes were constantly superfused by a solution containing (in mM) NaCl 90, KCl 1, HEPES 5, MgCl2 1, CaCl2) 1 (pH 7.4). Oocytes were impaled by two glass microelectrodes (resistance: 0.4 MΩ) which were filled with a solution containing KCl 1M+K-acetate 1.5 M and voltage-clamped to −80 mV. The recordings were performed at room temperature using the Roboocyte two-electrode voltage clamp system (Multichannelsystem). After an initial equilibration period of 1.5 min GABA was added for 1.5 min at a concentration evoking approximately 20% of a maximal current response (EC20). After another rest interval of 2.5 min GABA was again added evoking a response of similar amplitude and shape. 0.5 min after the onset of this second GABA application the test compound, at a concentration corresponding to approximatively 30 fold its Ki, was added while GABA was still present. Current traces were recorded at a digitization rate of 10 Hz during and shortly before and after the GABA application.
Each compound and concentration was tested on at least 3 oocytes. Different oocytes were used for different compound concentrations. β-CCM, a negative allosteric modulator, or Midazolam, a positive allosteric modulators, were tested on a few (3-6) oocytes on each 96-well plate for a positive control at a maximally effective. β-CCM inhibited the GABA-evoked current by approximatively 50% (Fold increase ˜0.5), while Midazolam potentiated the GABA-induced current by approximatively 150% (Fold increase ˜2.5).
For the analysis, the digitized current traces of the first and second GABA response were superimposed and, if necessary, rescaled to equal maximal amplitudes. The ratio between the two responses during the time interval of test compound application was calculated point by point. The extremum of the resulting “ratio trace” was taken as the efficacy (“Fold increase”) of the compound expressed as “% modulation of GABA EC20” (100*(Fold increase-1)).

[2] = target: T1, h-GABA-A α5β3γ2; experiment: [3H]flumazenil competition binding assay, membranes of HEK293 cells expressing GABAA receptors; details: displacement of [3H]-Flumazenil 0.5 nM, HEK293 cells expressing human receptors, mean of two determinations; Table 1
Protocol: The affinity of compounds at GABAA receptor subtypes was measured by competition for [3H]flumazenil (85 Ci/mmol; Roche) binding to HEK293 cells expressing rat (stably transfected) or human (transiently transfected) receptors of composition α1β3γ2, α2β3γ2, α3β3γ2 and α5β3γ2.
Cell pellets were suspended in Krebs-tris buffer (4.8 mM KCl, 1.2 mM CaCl2), 1.2 mM MgCl2, 120 mM NaCl, 15 mM Tris; pH 7.5; binding assay buffer), homogenized by polytron for ca. 20 sec on ice and centrifuged for 60 min at 4° C. (50000 g; Sorvall, rotor: SM24=20000 rpm). The cell pellets were resuspended in Krebs-tris buffer and homogenized by polytron for ca. 15 sec on ice. Protein was measured (Bradford method, Bio-Rad) and aliquots of 1 mL were prepared and stored at −80° C.
Assays were incubated to equilibrium for 1 hour at 4° C. and harvested onto GF/C uni-filters (Packard) by filtration using a Packard harvester and washing with ice-cold wash buffer (50 mM Tris; pH 7.5). After drying, filter-retained radioactivity was detected by liquid scintillation counting. Ki values were calculated using Excel-Fit (Microsoft) and are the means of two determinations.

| SMILES | Efficacy (GABA) % [1] [%] | Fold increase h-GABA-A α5β3γ2 oocyte [1] | Ki [2] [nM] |
| --- | --- | --- | --- |
| Cc1ccc(-c2noc(C)c2Cn2ncc(N3CCC(O)CC3)cc2=O)cn1 [Example 5, 5-(4-hydroxy-1-piperidyl)-2-[[5-methyl-3-(6-methyl-3-pyridyl)isoxazol-4-yl]methyl]pyridazin-3-one] | 155 | 2.55 | 1.6 |
| Cc1ccc(-c2noc(C)c2Cn2ncc(N3CCOC(C)(C)C3)cc2=O)cn1 [Example 6, 5-(2,2-dimethylmorpholin-4-yl)-2-((5-methyl-3-(6-methylpyridin-3-yl)-1,2-oxazol-4-yl)methyl)pyridazin-3-one] | 145 | 2.45 | 0.6 |
| Cc1ccc(-c2noc(C)c2Cn2ncc(N3C[C@@H](C)O[C@@H](C)C3)cc2=O)cn1 [Example 7, 5-(cis-2,6-dimethylmorpholin-4-yl)-2-((5-methyl-3-(6-methylpyridin-3-yl)-1,2-oxazol-4-yl)methyl)pyridazin-3-one] | 253 | 3.53 | 1 |
| CCOC(=O)C1CCN(c2cnn(Cc3c(-c4ccc(C)nc4)noc3C)c(=O)c2)CC1 [Example 8, ethyl 1-(1-((5-methyl-3-(6-methylpyridin-3-yl)-1,2-oxazol-4-yl)methyl)-6-oxopyridazin-4-yl)piperidine-4-carboxylate] | 168 | 2.68 | 26.4 |
| Cc1ccc(-c2noc(C)c2Cn2ncc(N3CCN(C(=O)C4CC4)CC3)cc2=O)cn1 [Example 9, 5-(4-(cyclopropanecarbonyl)piperazin-1-yl)-2-((5-methyl-3-(6-methylpyridin-3-yl)isoxazol-4-yl)methyl)pyridazin-3(2H)-one] | 153 | 2.53 | 15.9 |
| Cc1ccc(-c2noc(C)c2Cn2ncc(N3CCN(C(=O)C4(C)CC4)CC3)cc2=O)cn1 [Example 10, 2-((5-methyl-3-(6-methylpyridin-3-yl)isoxazol-4-yl)methyl)-5-(4-(1-methylcyclopropanecarbonyl)piperazin-1-yl)pyridazin-3(2H)-one] | 222 | 3.22 | 21.9 |
| Cc1onc(-c2ccc(F)cc2)c1Cn1ncc(N2CCOCC2)cc1=O [Example 11, 2-((3-(4-Fluorophenyl)-5-methylisoxazol-4-yl)methyl)-5-morpholinopyridazin-3(2H)-one] | 57 | 1.57 | 7.9 |
| Cc1onc(-c2ccc(F)cc2)c1Cn1ncc(N2C[C@@H](C)O[C@@H](C)C2)cc1=O [Example 12, 5-(cis-2,6-Dimethylmorpholino)-2-((3-(4-fluorophenyl)-5-methylisoxazol-4-yl)methyl)pyridazin-3(2H)-one] | 114 | 2.14 | 3.8 |
| Cc1onc(-c2ccc(Cl)cn2)c1Cn1ncc(N2C[C@@H](C)O[C@@H](C)C2)cc1=O [Example 13, 2-((3-(5-Chloropyridin-2-yl)-5-methylisoxazol-4-yl)methyl)-5-(cis-2,6-dimethylmorpholino)pyridazin-3(2H)-one] | 94 | 1.94 | 0.7 |
| C[C@@H]1CN(c2cnn(Cc3c(-c4ccc(Cl)cn4)noc3C3CC3)c(=O)c2)C[C@H](C)O1 [Example 14, 2-((3-(5-Chloropyridin-2-yl)-5-cyclopropylisoxazol-4-yl)methyl)-5-(cis-2,6-dimethylmorpholino)pyridazin-3(2H)-one] | 166 | 2.66 | 1.5 |
| Cc1onc(-c2ccc(F)cc2)c1Cn1ncc(N2CCN(C(=O)C3(C)CC3)CC2)cc1=O [Example 15, 2-((3-(4-Fluorophenyl)-5-methylisoxazol-4-yl)methyl)-5-(4-(1-methylcyclopropanecarbonyl)piperazin-1-yl)pyridazin-3(2H)-one] | 120 | 2.2 | 35.2 |
| Cc1onc(-c2ccc(Cl)cn2)c1Cn1ncc(N2CCN(C(=O)C3(C)CC3)CC2)cc1=O [Example 16, 2-((3-(5-Chloropyridin-2-yl)-5-methylisoxazol-4-yl)methyl)-5-(4-(1-methylcyclopropanecarbonyl)piperazin-1-yl)pyridazin-3(2H)-one] | 139 | 2.39 | 2.6 |
| Cc1ccc(-c2noc(C)c2Cn2ncc(N3CCOCC3)cc2=O)cn1 [Example 22, 2-[[5-methyl-3-(6-methyl-3-pyridyl)isoxazol-4-yl]methyl]-5-morpholino-pyridazin-3-one] | 166 | 2.66 | 3.2 |
| Cc1ccc(-c2noc(C)c2Cn2ncc(N3CCC(C(F)(F)F)CC3)cc2=O)cn1 [Example 24, 2-[[5-methyl-3-(6-methyl-3-pyridyl)isoxazol-4-yl]methyl]-5-[4-(trifluoromethyl)-1-piperidyl]pyridazin-3-one] | 203 | 3.03 | 14.6 |
| O=C(C1CC1)N1CCN(c2cnn(Cc3c(-c4ccc(Cl)cn4)noc3C3CC3)c(=O)c2)CC1 [Example 25, 2-((3-(5-Chloropyridin-2-yl)-5-cyclopropylisoxazol-4-yl)methyl)-5-(4-(cyclopropanecarbonyl)piperazin-1-yl)pyridazin-3(2H)-one] | 266 | 3.66 | 12.5 |
| CC1(C(=O)N2CCN(c3cnn(Cc4c(-c5ccc(Cl)cn5)noc4C4CC4)c(=O)c3)CC2)CC1 [Example 26, 2-((3-(5-Chloropyridin-2-yl)-5-cyclopropylisoxazol-4-yl)methyl)-5-(4-(1-methylcyclopropanecarbonyl)piperazin-1-yl)pyridazin-3(2H)-one] | 247 | 3.47 | 28.4 |
| Cc1ccc(-c2noc(C)c2Cn2ncc(N3CCC(C(=O)NC4CC4)CC3)cc2=O)cn1 [Example 27, N-cyclopropyl-1-[1-[[5-methyl-3-(6-methyl-3-pyridyl)isoxazol-4-yl]methyl]-6-oxo-pyridazin-4-yl]piperidine-4-carboxamide] | 100 | 2 | 14.2 |
| Cc1ccc(-c2noc(C)c2Cn2ncc(N3C[C@H]4CC[C@@H](C3)O4)cc2=O)cn1 [Example 28, 2-[[5-methyl-3-(6-methyl-3-pyridyl)isoxazol-4-yl]methyl]-5-[(1R,5S)-8-oxa-3-azabicyclo[3.2.1]octan-3-yl]pyridazin-3-one] | 136 | 2.36 | 0.6 |

From patent US11840528B2 (Hoffmann-La Roche Inc., priority 2018, dated 2023)
